In PMC9422153, “A novel antibiotic combination of linezolid and polymyxin B octapeptide PBOP against clinical Pseudomonas aeruginosa strains” (Annals of Clinical Microbiology and Antimicrobials, 2022):
Converted amounts (≈) assume the structure as drawn. Bridge positions count the residues as written; N and C are the ends. Square brackets hold non-standard residues; d marks the D form. Peptide text beside a SMILES is read from it. Dab = NCC[C@H](N)C(=O)O

Tests used:
P. aeruginosa PA14 [1] = type: cell-based, Pseudomonas aeruginosa
Experimental: Synergistic effect of the 6 polymyxin B or polymyxin E derivatives in combination with 5 conventional antibacterial agents was detected using the checkerboard method as described on the previous study. Briefly, the serial concentrations of test compounds were prepared by a two-dimensional array. The tested dilutions were based on the MICs of the two different compounds. The fractional inhibitory concentration index (FIC) was applied to illuminate the checkerboard test based on formulas as follows: FIC Index = […] = MICA+B/MICA, and FICB = MICB+A/MICB. The value of MICA+B is indicated as the MIC value of Compound A with Compound B, and equally for MICB+A. […] The experiments were repeated in triplicate.

[2] = tested on: all tested P. aeruginosa strains; type: cell-based, Pseudomonas aeruginosa; conditions: 24 h
Experimental: (§1) The MICs (minimal inhibitory concentrations) were determined for different P. aeruginosa strains using micro-dilution method, with a concentration of 1 × 10^5 CFU/mL on LB broth for 24 h, according to the published procedures. The experiment was carried out in three repeats.

[3] = tested on: C. elegans infected with PA14; test: C. elegans infection model; type: in vivo, Caenorhabditis elegans; conditions: PA14 infection on SK plate, linezolid 8 μg/mL, PBOP 16 μg/mL
Experimental: To determine the protective effect of LP, all groups of C. elegans were infected with PA14 in slow killing (SK) agar plate and were treated with PBS, linezolid (8 μg/mL), PBOP (16 μg/mL) or LP. The mortality of the infected C. elegans was evaluated for 7 days. […] The bacterial loads inside the C. elegans were counted at 12 h or 24 h post-infection as previously described. Briefly, the infected nematodes were mixed with silicon carbide particles and vortexed at maximum speed for one minute. The resulting suspension was serially diluted and plated on a selective agar plate to determine the bacterial CFU. This experiment was performed in triplicate.

PAB41 = test: Time-kill assay, bacterial burdens in vitro; type: cell-based, Pseudomonas aeruginosa; conditions: PAB41, 1 × 10^5 CFU in 96-well plates; 1 h, 6 h, 12 h, 24 h; LP compared to single-treated groups
Experimental: (§2) To explore the antibacterial activity of LP combination in the P. aeruginosa in vitro, PA14 were cultured in 96-well plates and were treated with PBS, linezolid, PBOP or LP for 1 h, 6 h, 12 h, and 24 h.
(§3) A1–A4 1 × 10^5 CFU of PA14 were seeded in 96-well plates and treated with PBS, linezolid, PBOP or combination of linezolid and PBOP (LP) for 1 h (A1), 6 h (A2), 12 h (A3), and 24 h (A4). The bacteria burdens on the LB agar plates were counted. B1–B4 1 × 10^5 CFU of PA2 were seeded in 96-well plates and treated with PBS, linezolid, PBOP or LP for 1 h (B1), 6 h (B2), 12 h (B3), and 24 h (B4). C1–C4 1 × 10^5 CFU of PAB41 were seeded in 96-well plates and treated with PBS, linezolid, PBOP or LP for 1 h (C1), 6 h (C2), 12 h (C3), and 24 h (C4). The bacteria burdens were determined as described above.

PA2 = test: Time-kill assay, bacterial burdens in vitro; type: cell-based, Pseudomonas aeruginosa; conditions: PA2, 1 × 10^5 CFU in 96-well plates; 1 h, 6 h, 12 h, 24 h; LP compared to single-treated groups
Experimental: as §2, §3

P. aeruginosa PAB41 = test: MIC, micro-dilution method; type: cell-based; conditions: Pseudomonas aeruginosa; P. aeruginosa PAB41 (carbapenem-resistant clinical strain); micro-dilution, 1 × 10^5 CFU/mL, LB broth, 24 h, three repeats; read-out: MIC
Experimental: as §1

P. aeruginosa PA14 [4] = test: MIC, micro-dilution method; type: cell-based; conditions: Pseudomonas aeruginosa; P. aeruginosa PA14; micro-dilution, 1 × 10^5 CFU/mL, LB broth, 24 h, three repeats; read-out: MIC
Experimental: as §1

P. aeruginosa PA2 = test: MIC, micro-dilution method; type: cell-based; conditions: Pseudomonas aeruginosa; P. aeruginosa PA2 (multidrug-resistant clinical strain); micro-dilution, 1 × 10^5 CFU/mL, LB broth, 24 h, three repeats; read-out: MIC
Experimental: as §1

P. aeruginosa ATCC27853 = test: MIC, micro-dilution method; type: cell-based; conditions: Pseudomonas aeruginosa; P. aeruginosa ATCC27853; micro-dilution, 1 × 10^5 CFU/mL, LB broth, 24 h, three repeats; read-out: MIC
Experimental: as §1

MIC [2] | MIC (P. aeruginosa PAB41) [µg/mL] | MIC (P. aeruginosa PA14 [4]) [µg/mL] | MIC (P. aeruginosa PA2) [µg/mL] | MIC (P. aeruginosa ATCC27853) [µg/mL] | SMILES | FIC (lowest FIC Index) combined with Erythromycin (P. aeruginosa PA14 [1]) | FIC (lowest FIC Index) combined with Lincomycin (P. aeruginosa PA14 [1]) | FIC (lowest FIC Index) combined with Linezolid (P. aeruginosa PA14 [1]) | FIC (lowest FIC Index) combined with Nisin (P. aeruginosa PA14 [1]) | FIC (lowest FIC Index) combined with Vancomycin (P. aeruginosa PA14 [1]) | bacterial loads inside C. elegans ([3]; 12 h and 24 h post infection) | survival of infected C. elegans ([3]; monitored 7 days) | bacterial CFU / bactericidal activity (PAB41) | bacterial CFU / bactericidal activity (PA2)
 | > 256 | > 256 | > 256 | > 256 | CC(=O)NC[C@H]1CN(c2ccc(N3CCOCC3)c(F)c2)C(=O)O1 [Linezolid, linezolid] |  |  |  |  |  | a great number of bacteria were detected | died at day 3 | no remarkably bactericidal activity | no remarkably bactericidal activity
 | 1 (≈ 2.77 µM) | 0.5 (≈ 1.38 µM) | 0.5 (≈ 1.38 µM) | 0.5 (≈ 1.38 µM) | CC1COc2c(N3CCN(C)CC3)c(F)cc3c(=O)c(C(=O)O)cn1c23 (stereo not shown) [Ofloxacin, ofloxacin] |  |  |  |  |  |  |  |  | 
over 256 µg/mL |  |  |  |  | CC(C)C[C@@H]1NC(=O)[C@@H](Cc2ccccc2)NC(=O)[C@H](CCN)NC(=O)[C@@H](N)CCNC(=O)[C@H]([C@@H](C)O)NC(=O)[C@H](CCN)NC(=O)[C@H](CCN)NC1=O [PBHP, polymyxin B heptapeptide] (H-[Dab][Dab][dF]L[Dab][Dab]T; lactam 1-C (inferred); N-terminus assumed) | 0.281 | 0.188 | 0.141 | 0.375 | 0.141 |  |  |  | 

The remaining lines, values behind:

SMILES | MIC [2] | MIC (P. aeruginosa PAB41) [µg/mL] | MIC (P. aeruginosa PA14 [4]) [µg/mL] | MIC (P. aeruginosa PA2) [µg/mL] | MIC (P. aeruginosa ATCC27853) [µg/mL] | FIC (lowest FIC Index) combined with Erythromycin (P. aeruginosa PA14 [1]) | FIC (lowest FIC Index) combined with Lincomycin (P. aeruginosa PA14 [1]) | FIC (lowest FIC Index) combined with Linezolid (P. aeruginosa PA14 [1]) | FIC (lowest FIC Index) combined with Nisin (P. aeruginosa PA14 [1]) | FIC (lowest FIC Index) combined with Vancomycin (P. aeruginosa PA14 [1]) | bacterial loads inside C. elegans ([3]; 12 h and 24 h post infection) | survival of infected C. elegans ([3]; monitored 7 days) | bacterial CFU / bactericidal activity (PAB41) | bacterial CFU / bactericidal activity (PA2)
CC(C)C[C@@H]1NC(=O)[C@@H](Cc2ccccc2)NC(=O)[C@H](CCN)NC(=O)[C@@H](NC(=O)[C@H](CCN)NC(=O)[C@@H](N)[C@@H](C)O)CCNC(=O)[C@H]([C@@H](C)O)NC(=O)[C@H](CCN)NC(=O)[C@H](CCN)NC1=O [PBNP, polymyxin B nonapeptide] (H-T[Dab][Dab][Dab][dF]L[Dab][Dab]T; lactam 3-C (inferred); N-terminus assumed) | over 256 µg/mL |  |  |  |  | 0.188 | 0.156 | 0.156 | 0.250 | 0.250 |  |  |  | 
CN(C)c1cc(NC(=O)CNC(C)(C)C)c(O)c2c1C[C@H]1C[C@H]3[C@H](N(C)C)C(O)=C(C(N)=O)C(=O)[C@@]3(O)C(O)=C1C2=O [Tigecycline, tigecycline] |  | 2 (≈ 3.41 µM) | 2 (≈ 3.41 µM) | 4 (≈ 6.83 µM) | 4 (≈ 6.83 µM) |  |  |  |  |  |  |  |  | 
CC(C)C[C@@H]1NC(=O)[C@@H](CC(C)C)NC(=O)[C@H](CCN)NC(=O)[C@@H](NC(=O)[C@@H](N)CCN)CCNC(=O)[C@H]([C@@H](C)O)NC(=O)[C@H](CCN)NC(=O)[C@H](CCN)NC1=O [PEOP, polymyxin E octapeptide] (H-[Dab][Dab][Dab][dL]L[Dab][Dab]T; lactam 2-C (inferred); N-terminus assumed) | over 256 µg/mL |  |  |  |  | 0.313 | 0.141 | 0.188 | 0.313 | 0.125 |  |  |  | 
CC(C)C[C@@H]1NC(=O)[C@@H](CC(C)C)NC(=O)[C@H](CCN)NC(=O)[C@@H](N)CCNC(=O)[C@H]([C@@H](C)O)NC(=O)[C@H](CCN)NC(=O)[C@H](CCN)NC1=O [PEHP, polymyxin E heptapeptide] (H-[Dab][Dab][dL]L[Dab][Dab]T; lactam 1-C (inferred); N-terminus assumed) | over 256 µg/mL |  |  |  |  | 0.258 | 0.250 | 0.141 | 0.266 | 0.156 |  |  |  | 
CC(C)C[C@@H]1NC(=O)[C@@H](CC(C)C)NC(=O)[C@H](CCN)NC(=O)[C@@H](NC(=O)[C@H](CCN)NC(=O)[C@@H](N)[C@@H](C)O)CCNC(=O)[C@H]([C@@H](C)O)NC(=O)[C@H](CCN)NC(=O)[C@H](CCN)NC1=O [PENP, polymyxin E nonapeptide] (H-T[Dab][Dab][Dab][dL]L[Dab][Dab]T; lactam 3-C (inferred); N-terminus assumed) | over 256 µg/mL |  |  |  |  | 0.281 | 0.125 | 0.281 | 0.375 | 0.188 |  |  |  | 
